Experimental findings from patent publication US6576771B1, “Oxymethoxy-3-aryl-pyrone derivatives” (Bayer Aktiengesellschaft, priority 1995, dated 2003) are described below.

The test system of series [1] is larvae of the green rice leafhopper (Nephotettix cincticeps). As to the kind of experiment: Nephotettix test. The note with it: after 6 days; active compound concentration 0.1%; rice seedlings dipped. Type of series: in vivo. As to the method:
Nephotettix Test Solvent: 7 parts by weight of dimethylformamide Emulsifier: 1 part by weight of alkylaryl polyglycol ether […] Rice seedlings (Oryzae sativa) are treated by being dipped into the preparation of the active compound of the desired concentration and are infested with larvae of the green rice leafhopper (Nephotettix cincticeps), while the seedlings are still moist.

Series [2] has as its system black bean aphids (Aphis fabae). The series is described as follows: Limit concentration test / root-systemic action. Type of series: in vivo. The note with it: active compound concentration 20 ppm in soil; beans (Vicia faba); leaves infested after 7 days, evaluated after a further 2 days. An excerpt:
Limit Concentration Test/Root-systemic Action Test insect: Aphis fabae Solvent: 4 parts by weight of acetone Emulsifier: 1 part by weight of alkylaryl polyglycol ether […] The preparation of active compound is intimately mixed with soil. The concentration of the active compound in the preparation is of no importance in practise, only the amount by weight of active compound per unit volume of soil, which is given in ppm (=mg/l), being decisive. The treated soil is transferred into pots and these are planted with beans (Vicia faba). The active compound can in this way be taken up from the soil by the roots of the plants and be transported into the leaves. […] After a further 2 days, the evaluation is made by counting or estimating the dead animals. The root-systemic action of the active compound is deduced from the destruction figures.

Series [3] relates to All larval stages of Lucilia cuprina (OP resistant). The series is described as follows: Test with fly larvae / development-inhibiting activity. Type of series: in vivo. The note with it: active compound concentration 1000 ppm. How it is done:
Test with Fly Larvae/Development-inhibiting Activity
Test animals: All larval stages of Lucilia cuprina (OP resistant) [Pupae and adults (without contact with the active compound)]
Solvent: 35 parts by weight of ethylene glycol monomethyl ether 35 parts by weight of nonylphenol polyglycol ether
For each concentration, 30 to 50 larvae are introduced into test tubes containing horse meat (1 cm^3), onto which […] of the dilution under test are pipetted. The glass test tubes are placed in plastic beakers which have bottoms covered with sea sand and are kept in an air-conditioned room (26° C.±1.5° C., 70% relative humidity ±10%). The action is inspected after 24 hours and 48 hours (larvicidal action). After emigration of the larvae (approximately 72 h), the test tubes are removed and perforated plastic lids are placed on the beakers. After 1½ times the development period (emergence of the control flies), the emerged flies and the pupae/pupal cases are counted.
The criterion of activity used is the occurrence of death of the treated larvae after 48 h (larvicidal effect), or the inhibition of adult emergence from the pupae, or inhibition of pupal formation. The criterion used for the in-vitro activity of a substance is inhibition of fly development, or cessation of development prior to the adult stage. 100% larvicidal activity means that all larvae have died after 48 hours. 100% development inhibition activity means that no adult flies emerged.

The subject of another series is Sphaerotheca fuliginea. The series is described as follows: Sphaerotheca test (cucumber) / protective. The settings on record: active compound concentration 100 ppm, evaluation 10 days after inoculation.
Series [4] relates to mustard beetle larvae (Phaedon cochleariae). As to the kind of experiment: Phaedon larvae test. The settings on record: after 7 days; active compound concentration 0.01%; cabbage leaves dipped. Type of series: in vivo. As to the method:
Phaedon Larvae Test Solvent: 7 parts by weight of dimethylformamide Emulsifier: 1 part by weight of alkylaryl polyglycol ether […] Cabbage leaves (Brassica oleracea) are treated by being dipped into the preparation of the active compound of the desired concentration and are infested with mustard beetle larvae (Phaedon cochleariae), while the leaves are still moist.

Series [5] has as its system caterpillars of the diamond-back moth (Plutella maculipennis). As to the kind of experiment: Plutella test. Type of series: in vivo. The note with it: after 7 days; active compound concentration 0.1%; cabbage leaves dipped. How it is done:
Plutella Test Solvent: 7 parts by weight of dimethylformamide Emulsifier: 1 part by weight of alkylaryl polyglycol ether […] Cabbage leaves (Brassica oleracea) are treated by being dipped into the preparation of the active compound of the desired concentration and are infested with caterpillars of the diamond-back moth (Plutella maculipennis), while the leaves are still moist.

The subject of series [6] is caterpillars of the owlet moth (Spodoptera frugiperda). The series is described as follows: Spodoptera test. Type of series: in vivo. The note with it: after 7 days; active compound concentration 0.1%; cabbage leaves dipped. As to the method:
Solvent: 7 parts by weight of dimethylformamide
(§1) Emulsifier: 1 part by weight of alkylaryl polyglycol ether
Cabbage leaves (Brassica oleracea) are treated by being dipped into the preparation of the active compound of the desired concentration and are infested with caterpillars of the owlet moth (Spodoptera frugiperda), while the leaves are still moist.
After the specified period of time, the destruction in % is determined. 100% means that all the caterpillars have been killed; 0% means that none of the caterpillars have been killed.

In series [7] the test system is common spider mite (Tetranychus urticae). The series is described as follows: Tetranychus test (resistance). Type of series: in vivo. The note with it: after 13 days; active compound concentration 0.01%; bean plants dipped. How it is done:
Tetranychus Test (Resistance)
Solvent: 3 parts by weight of dimethylformamide
as §1
After the specified period of time, the destruction in % is determined. 100% means that all the spider mites have been killed 0% means that none of the spider mites have been killed.

Each structure is given as a SMILES string.

Protocol for Sphaerotheca fuliginea: Solvent: 4.7 parts by weight of acetone
Emulsifier: 0.3 parts by weight of alkylaryl polyglycol ether
After the spray coating has dried on, the plants are dusted with conidia of the fungus Sphaerotheca fuliginea.
The plants are then placed in a greenhouse at 23 to 24° C. and at a relative atmospheric humidity of about 75%.
Evaluation is carried out 10 days after the inoculation.

Consider `C#CCOCOc1c(C)c(-c2ccccn2)oc(=O)c1-c1c(C)cc(C)cc1C` [Example 1, 5-methyl-6-(2-pyridyl)-4-propargyloxymethoxy-3-(2,4,6-trimethylphenyl)-2-pyrone], for which the degree of destruction in [1] is on record as 100%. In addition, the “degree of destruction (root-systemic action)” value in series [2] is reported as 100%. For the same compound, in [3] (Lucilia cuprina, read-out: activity (larvicidal / development inhibition)), the inhibition at 1000 ppm is 100%. The “activity in comparison with the untreated control” value (“activity in comparison” for short) in the series with Sphaerotheca fuliginea is 100%.
`Cc1cc(C)c(-c2c(OCOCC(C)C)c(C)c(-c3ccc(Cl)cc3)oc2=O)c(C)c1` [Example 2, 6-(4-chlorophenyl)-4-[(2-methyl-1-propoxy)-methoxy]-5-methyl-3-(2,4,6-trimethylphenyl)-2-pyrone]: in the series with Sphaerotheca fuliginea, the “activity in comparison” value worked out at 100%.
`CCOCOc1c(C)c(-c2ccc(F)cc2)oc(=O)c1-c1c(C)cc(C)cc1C` [Example 4]: the degree of destruction in series [4], in series [5], in [6] and in series [1] was 100% each time. For the same compound, the “activity (larvicidal / development inhibition)” value in series [3] turned out to be 100%. In the series on Sphaerotheca fuliginea, the “activity in comparison” value worked out at 100%.
`CCOCOc1cc(CC(C)C)oc(=O)c1-c1c(C)cc(C)cc1C` [Example 5]: the degree of destruction in series [4], in [5] and in [6] was 100% each time.
`C#CCOCOc1c(C)c(-c2ccc(F)cc2)oc(=O)c1-c1c(C)cc(C)cc1C` [Example 7] registered a degree of destruction in [1] of 100%. The “activity in comparison” value with Sphaerotheca fuliginea amounted to 100%.
On to `Cc1cc(C)c(-c2c(OCOCC(C)C)c(C)c(-c3ccc(F)cc3)oc2=O)c(C)c1` [Example 8], for which the “activity in comparison” value in the series on Sphaerotheca fuliginea is recorded as 100%.
Consider `Cc1cc(C)c(-c2c(OCOC(C)C)c(C)c(-c3ccc(F)cc3)oc2=O)c(C)c1` [Example 9], for which the degree of destruction in series [4], in series [5], in series [6], in [1] and in series [7] was 100% throughout. For the same compound, in series [3], the “activity (larvicidal / development inhibition)” value turned out to be 100%. The “activity in comparison” value with Sphaerotheca fuliginea was determined as 100%.
Turning to `Cc1cc(C)c(-c2c(OCOCC(C)C)c(C)c(-c3ccccn3)oc2=O)c(C)c1` [Example 10], the degree of destruction in series [5] and in series [7] was 100% each time. For the same compound, in series [2], the “degree of destruction (root-systemic action)” value was found to be 100%. For the same compound, in series [3], the “activity (larvicidal / development inhibition)” value stood at 100%. For the same compound, the “activity in comparison” value in the series on Sphaerotheca fuliginea was found to be 100%.
As to `Cc1cc(C)c(-c2c(OCOC(C)C)c(C)c(-c3ccccn3)oc2=O)c(C)c1` [Example 11], the degree of destruction in [1] and in series [7] was 100% throughout. Also, the “degree of destruction (root-systemic action)” value in series [2] was found to be 100%. Further, the “activity (larvicidal / development inhibition)” value in [3] came out at 100%. The “activity in comparison” value in the series on Sphaerotheca fuliginea turned out to be 100%.
With `Cc1cc(C)c(-c2c(OCOC(C)C)cc(C3(Cl)CC3)oc2=O)c(C)c1` [Example 21], the degree of destruction in [1] and in series [7] was 100% each time. Also, the “activity in comparison” value in the series with Sphaerotheca fuliginea was 100%.
As for `CCOCOc1c(C)c(-c2ccccn2)oc(=O)c1-c1c(C)cc(C)cc1C` [Example 26], the degree of destruction in series [4] and in series [1] was 100% each time.
Take `Cc1cc(C)c(-c2c(OCOCC(C)C)c(C)c(-c3cccc(C)n3)oc2=O)c(C)c1` [Example 27]: the degree of destruction in [4], in [5] and in [1] was 100% throughout.
`Cc1cc(C)c(-c2c(OCOC(C)C)c(C)c(-c3cccc(C)n3)oc2=O)c(C)c1` [Example 28]: the degree of destruction in series [4], in [5] and in series [1] was 100% in each case.
For the compound `CCOCOc1c(C)c(C2CCCC2)oc(=O)c1-c1c(C)cc(C)cc1C` [Example 32], the degree of destruction in series [5], in series [6] and in series [1] was 100% in each case.
For the compound `C#CCOCOc1c(C)c(C2CCCC2)oc(=O)c1-c1c(C)cc(C)cc1C` [Example 33], in series [1], the degree of destruction came to 100%.
`Cc1cc(C)c(-c2c(OCOC(C)C)c(C)c(C3CCCC3)oc2=O)c(C)c1` [Example 34]: the degree of destruction in series [5] and in [6] was 100% throughout.
Take `Cc1cc(C)c(-c2c(OCOCC(C)C)oc(-c3ccsc3)c(C)c2=O)c(C)c1` [Example 36, 2-[(2-Methyl-1-propoxy)-methoxy]-5-methyl-6-(3-thienyl)-3-(2,4,6-trimethyl-phenyl)-4-pyrone]: the melting point – broadly, the temperature of the solid-liquid transition – fell in the range of 102 to 104 °C.
